# Measurements: US20100278925A1, “FORMULATIONS OF ORGANO-PLATINIC COMPOUNDS IN THE PRESENCE OF ASSOCIATIVE POLYMERS, PRODUCTS THUS OBTAINED AND USES THEREOF” (Coatex S.A. S., priority 2007, published 2010)
# Assay: Reference tests: oxaliplatin added into water without polymer or with non-associative polymer
# Format: physicochemical
# Details: oxaliplatin 10.5 g/L in water, pH 7, without polymer
# From the text: This test is a reference which consists of adding the oxaliplatin into water, without the associative water-soluble polymer.
# This test is a reference which consists of adding the oxaliplatin into water, […].
# Next, 1.9 g of a water-soluble polymer with 30% solids content, said polymer being made up 36.9% by weight of methacrylic acid and 63.1% by weight of ethyl acrylate.
structure (smiles),measurement,value
O=C1[O][Pt]2([NH][C@@H]3CCCC[C@H]3[NH]2)[O]C1=O [oxaliplatin],Appearance of the result,powder suspended in the water
